Patent US20250195504A1, “NALTREXAMINE DERIVATIVES BEARING 5-MEMBER HETEROCYCLIC RING SYSTEMS AND OPIOID RECEPTOR MODULATORS” (VIRGINIA COMMONWEALTH UNIVERSITY, priority 2022, published 2025)
Counter-ions that a name gives are not always drawn.

Assays:
[1] = system: male Swiss Webster mice; experiment: warm-water tail immersion assay, antagonism of morphine's antinociception; assay type: in vivo, mouse; conditions: for Tail flick assay (dose response) AD50: 95% CL
Procedure: Following this single dose assessment, in vivo dose-response studies with eight identified antagonists were conducted.
Antinociceptive effect of synthesized compounds was determined using the warm-water tail immersion assay. Swiss Webster mice (six male mice for each group, 25-35 g, 6-8 weeks old) were used in this assay. Antinociception for all compounds was examined in male Swiss Webster mice. […] To prevent tissue damage, a 10 s maximum cutoff time was imposed. Antinociceptive response was calculated as the percentage of maximum possible effect (% MPE), where % MPE=[(test−control latency)/(10−control latency)]×100.
Warm-water tail immersion assay is a well-established assay for evaluating opioid analgesics, especially MOR agonists. […] In this context, all 24 compounds were first evaluated for their acute antinociception tail-withdrawal assay (FIG. 5A).
The tail-withdrawal test was performed using a water bath with the temperature maintained at 56±0.1° C. Baseline latency was measured before any injections. Each mouse was gently wrapped in a cloth with only the tail exposed. The distal one-third of the tail was immersed perpendicularly in water, and the mouse rapidly flicked the tail from the bath was seen as the first sign of discomfort. The duration of time the tail remained in the water bath was counted as the baseline latency. Untreated mice with baseline latency reaction times ranging from 2 to 4 seconds were used. Test latency was obtained 20 min later after each injection. A 10-second maximum cutoff latency was used to prevent any tissue damage. Antinociception was quantified as the percentage of maximal possible effect (% MPE), which was calculated as % MPE=[(test latency−control latency)/(10−control latency)]×100. The % MPE value was calculated for each mouse using 6 mice per group. Testing compounds were given 10 mg/kg (s.c.) to each mouse.

[2] = Protein Binding (plasma), rat
[3] = In vivo Bioavailability Foral; conditions: po
[4] = Protein Binding (plasma), human
[5] = system: Serotonin receptor, dopamine receptor, biogenic amine transporters; experiment: side effect profiling panel binding; conditions: up to 10 μM, except the targets listed
[6] = Metabolic Stability (half-life), rat
[7] = Metabolic Stability (half-life), human
[8] = molecular target: KOR (Mus musculus, UniProt P33534); experiment: KOR [35S]GTPγS binding assay; assay type: biochemical; parameters: expressed in transfected cells; host or cells: CHO; conditions: for Emax: read-out: 35S-GTP[γS]-Binding KOR Efficacy (% max of U50, 488H)
Sequence of KOR (P33534 whole entry): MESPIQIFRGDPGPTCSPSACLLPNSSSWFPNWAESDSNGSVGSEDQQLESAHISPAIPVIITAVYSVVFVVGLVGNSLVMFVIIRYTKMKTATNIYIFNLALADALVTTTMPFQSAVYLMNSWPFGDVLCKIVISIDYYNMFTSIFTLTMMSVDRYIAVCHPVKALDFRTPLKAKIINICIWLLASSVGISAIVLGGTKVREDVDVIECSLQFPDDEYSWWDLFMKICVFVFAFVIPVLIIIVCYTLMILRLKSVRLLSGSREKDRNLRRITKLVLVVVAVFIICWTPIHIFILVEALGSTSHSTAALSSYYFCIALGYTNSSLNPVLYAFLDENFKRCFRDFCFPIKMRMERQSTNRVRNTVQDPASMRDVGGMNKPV
Procedure: The [^35S]GTPγS functional assay was conducted to determine the efficacy of the compounds at the MOR, KOR and DOR. […] The Bradford protein assay was utilized to determine and adjust the concentration of protein required for the assay. Nonspecific binding was determined with 20 μM unlabeled GTPγS. Furthermore, 3 μM DAMGO/U50488H/SNC80 was included in the assay as the maximally effective concentration of a full agonist for the MOR/KOR/DOR. After incubation, the bound radioactive ligand was separated from the free radioligand by filtration through a GF/B glass fiber filter paper using a Brandel harvester. Bound radioactivity was determined by liquid scintillation counting. All assays were determined in duplicate and repeated at least three times. Net stimulated [^35S]GTPγS binding was defined as agonist-stimulated minus basal binding in the absence of agonist. Percent of DAMGO/U50488H/SNC80 stimulated [^35S]GTPγS binding was defined as (net-stimulated binding by ligand/net-stimulated binding by 3 μM DAMGO U50488H/SNC80)×100%.

[9] = system: morphine-pelleted mice; experiment: opioid withdrawal study in morphine-pelleted mice; conditions: for Withdrawal study: wet-dog shakes, escape jumps, paw tremors: 1 mg/kg dose, compared to 1 mg/kg naloxone; for withdrawal symptoms (wet-dog shakes, escape jumps, paw tremors): 1 mg/kg s.c., compared to 1 mg/kg NLX; for withdrawal symptoms at higher doses: 5 mg/kg and above, s.c.
[10] = molecular target: T1, hM1 (Homo sapiens, UniProt P11229); experiment: side effect profiling, hM1; assay type: binding; conditions: for hM1 binding: at 10 uM
T1 sequence (P11229 1-460): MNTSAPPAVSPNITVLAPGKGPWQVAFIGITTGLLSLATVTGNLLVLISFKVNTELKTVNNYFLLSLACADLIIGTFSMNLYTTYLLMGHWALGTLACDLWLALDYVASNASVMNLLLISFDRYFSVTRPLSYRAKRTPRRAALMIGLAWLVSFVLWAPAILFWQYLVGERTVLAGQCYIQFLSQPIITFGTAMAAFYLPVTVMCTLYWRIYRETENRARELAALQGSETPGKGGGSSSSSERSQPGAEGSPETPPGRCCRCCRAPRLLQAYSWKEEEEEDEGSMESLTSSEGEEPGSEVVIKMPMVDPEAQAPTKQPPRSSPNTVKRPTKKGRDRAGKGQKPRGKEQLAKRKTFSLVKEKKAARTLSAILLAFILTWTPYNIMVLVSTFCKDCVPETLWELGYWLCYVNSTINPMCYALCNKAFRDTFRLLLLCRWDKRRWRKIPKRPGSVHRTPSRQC

[11] = molecular target: T2, hM4 (Homo sapiens, UniProt P08173); experiment: side effect profiling, hM4; assay type: binding; conditions: for hM4 binding: at 10 uM
T2 sequence (P08173 1-479): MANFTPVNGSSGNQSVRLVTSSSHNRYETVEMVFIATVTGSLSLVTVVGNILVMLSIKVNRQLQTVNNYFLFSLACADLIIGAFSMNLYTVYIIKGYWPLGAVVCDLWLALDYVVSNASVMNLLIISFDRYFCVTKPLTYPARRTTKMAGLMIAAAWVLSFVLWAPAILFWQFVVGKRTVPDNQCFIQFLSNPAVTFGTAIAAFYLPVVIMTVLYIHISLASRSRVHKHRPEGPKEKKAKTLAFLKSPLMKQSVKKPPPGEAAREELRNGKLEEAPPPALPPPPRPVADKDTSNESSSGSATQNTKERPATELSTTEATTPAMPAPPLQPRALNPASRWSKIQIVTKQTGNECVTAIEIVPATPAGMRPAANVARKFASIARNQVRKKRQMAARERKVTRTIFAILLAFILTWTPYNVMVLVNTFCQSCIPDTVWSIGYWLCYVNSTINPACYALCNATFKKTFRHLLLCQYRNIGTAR

[12] = solubility; conditions: Tables A, B
[13] = AMES testing

| Compound | Tail flick assay (dose response) AD50 ([1]; mice) | fraction unbound [2] | bioavailability [3] [%] | fraction unbound [4] | side effect profiling, binding to panel [5] | half-life [6] [min] | half-life [7] [min] | Emax [8] [%] | Withdrawal study: wet-dog shakes, escape jumps, paw tremors [9] | hM1 binding [10] | hM4 binding [11] | Solubility [12] | AMES testing [13] | withdrawal symptoms (wet-dog shakes, escape jumps, paw tremors) [9] | withdrawal symptoms at higher doses [9] | also measured |
| --- | --- | --- | --- | --- | --- | --- | --- | --- | --- | --- | --- | --- | --- | --- | --- | --- |
| O=C(N[C@H]1CCC2(O)C3Cc4ccc(O)c5c4[C@@]2(CCN3CC2CC2)[C@H]1O5)c1ccc[nH]1 (stereo partly drawn) [Example 1 compound 1, 17-Cyclopropylmethyl-3,14β-dihydroxy-4,5α-epoxy-6a-[(2′-pyrrolyl)carboxamido]morphinan hydrochloride] | The AD50 of NAY was determined as 4.71 (1.61- mg/kg | 0.43 | 59 | 0.43 | No significant binding up | > 60 | > 60 | 43.4 ± 1.36 | At 1 mg/kg dose of NAY produced NO wet-dog |  |  |  |  |  |  |  |
| O=C(N[C@H]1CC[C@@]2(O)[C@H]3Cc4ccc(O)c5c4[C@@]2(CCN3CC2CC2)[C@H]1O5)c1cccs1 [Example 1 compound 25, 17-Cyclopropylmethyl-3,14β-dihydroxy-4,5α-epoxy-6α-(2′-thienylcarboxamido)morphinan hydrochloride] |  | 0.36 | 19 | 0.63 |  | > 60 | > 60 | 50.6 ± 0.95 |  | 53% | 61% | Solubility: DMSO, H2O | No toxicity shown | significantly fewer wet-dog shakes, escape jumps, and paw tremors | started showing wet dog shakes and jumps at a 5 mg/kg dose | Ki [10]: 8.4 µM; Ki [11]: 4.9 µM; Withdrawal study: wet-dog shakes, escape jumps, paw tremors at high dose ([9]; high dose (5 to 20 mg/kg), compared to naloxone at 1 mg/kg, listed as NAT, hydrochloride): lower compared to naloxone at 1 mg/kg. |
| O=C(N[C@H]1CC[C@@]2(O)[C@H]3Cc4ccc(O)c5c4[C@@]2(CCN3CC2CC2)[C@H]1O5)c1nccs1 [NTZ, 17-Cyclopropylmethyl-3,14β-dihydroxy-4,5α-epoxy-6α-(2′-thiazolylcarboxamido)morphinan hydrochloride] | The AD50 of VZMN283 was determined as 0.043 mg/kg | 0.4 |  | 0.56 | No significant binding up | > 60 | > 60 | 23.5 ± 2.03 | fewer symptoms than naloxone at the same dose. | hM1 (53% at 10 uM) | hM4 (67% at 10 uM) | Solubility: DMSO, H2O | No toxicity shown |  |  | Tail flick assay, antagonism of morphine's antinociceptive effect (in words) ([1]; mice, single dose 10 mg/kg): significantly antagonized morphine's antinociceptive; EC50 ([8]; Tables A, B, read-out: 35S-GTP[γS]-Binding KOR Potency EC50): 3.83 ± 0.62 nM; Withdrawal study: precipitation of withdrawal syndromes ([9]; up to 0.1 mg/kg): No significant precipitation of withdrawal syndromes |
| O=C(N[C@H]1CC[C@@]2(O)[C@H]3Cc4ccc(O)c5c4[C@@]2(CCN3CC2CC2)[C@H]1O5)c1ccsc1 [Example 1 compound 31, 17-Cyclopropylmethyl-3,14β-dihydroxy-4,5α-epoxy-6α-(3′-thienylcarboxamido)morphinan hydrochloride] |  | 0.44 | 15 | 0.4 |  | 44 | > 60 |  | produced significantly fewer wet-dog shakes, | hM1 (62% at 10 uM) | hM4 (65% at 10 uM) | Solubility: DMSO, H2O | No toxicity shown | significantly fewer wet-dog shakes, escape jumps, and paw tremors | started showing wet dog shakes and jumps at a 5 mg/kg dose | antagonism of morphine's antinociceptive effect (in words) ([1]; Example 1 compounds, 10 mg/kg s.c. in the presence of morphine (10 mg/kg)): significantly antagonized morphine's antinociceptive effect; AD50 mg/kg (95% CL) to antagonize morphine mediated antinociception ([1]; Example 1 compounds, s.c., mice, morphine 10 mg/kg): 1.51 mg/kg |
